Consider 19 compounds from patent US9637485B2, “6,7-dihydrobenzo[a]quinolizin-2-one derivatives for the treatment and prophylaxis of hepatitis B virus infection” (Hoffmann-La Roche Inc., priority 2014, dated 2017).

A word on the IC50: it is the concentration that inhibits the measured activity by half.

The structures appear in SMILES notation.

The first test relates to HBsAg. Description: HBsAg assay (CLIA of secreted HBsAg in HepG2.2.15 culture supernatant). The test is classed as cell-based, HBV. The following applies: Hepatitis B virus, HepG2.2.15, read-out: IC50 (HBsAg secretion reduced by 50% compared to the no drug control), HepG2.2.15 cells, culture supernatant, HBsAg CLIA. Here is the method:
(§1) HepG2.2.15 cells (Acs et al. Proc Natl Acad Sci USA, 84, (1987), 4641-4), a constitutively HBV-expressing cell line were cultured in DMEM+Glutamax-I medium (Invitrogen, Carlsbad, Calif., USA, Catalog number: 11320082), supplemented with 10% fetal bovine serum (Invitrogen, Catalog number: 10099141) and G418 (Invitrogen, Catalog number: 10131027) at a final concentration of 200 mg/L and maintained in 5% CO2 at 37° C.
HepG2.2.15 cells were seeded in duplicate into white, 96-well plates at 1.5×10^4 cells/well. The cells were treated with a three-fold serial dilution series of the compounds in DMSO. The final DMSO concentration in all wells was 1% and DMSO was used as no drug control.
The HBsAg chemiluminescence immunoassay (CLIA) kit (Autobio Diagnostics Co., Zhengzhou, China, Catalog number: CL0310-2) was used to measure the levels of secreted HBV antigens semi-quantitatively. For the detection 50 μL/well culture supernatant was used and HBsAg was quantified using HBsAg chemiluminescence immunoassay (CLIA) kit (Autobio Diagnostics Co., Zhengzhou, China, Catalog number: CL0310-2), 50 μl of the supernatant was transferred to the CLIA assay plate and 50 μL of enzyme conjugate reagent was added into each well. The plates were sealed and gently agitated for 1 hour at room temperature. The supernatant-enzyme-mixture was discarded and wells were washed 6 times with 300 μL of PBS. The residual liquid was removed by plating the CLIA plate right side down on absorbent tissue paper. 25 μL of substrates A and B were added to each well. Luminance was measured using a luminometer (Mithras LB 940 Multimode Microplate Reader) after 10 minutes incubation. Dose-response curves were generated and the IC50 value was extrapolated by using the E-WorkBook Suite (ID Business Solutions Ltd., Guildford, UK). The IC50 was defined as the compound concentration (or conditioned media log dilution) at which HBsAg secretion was reduced by 50% compared to the no drug control.
On to `COCCCOc1cc2c(cc1OC)-c1cc(=O)c(C(=O)O)cn1C(C(C)(C)COCc1ccccc1)C2` (stereo not drawn) [Example 23, 6-(2-Benzyloxy-1,1-dimethyl-ethyl)-10-methoxy-9-(3-methoxypropoxy)-2-oxo-6,7-dihydrobenzo[a]quinolizine-3-carboxylic acid], for which the IC50 was determined as 18 nM.
The same measure, in the same setting: the result for `COCC(C)(C)C1Cc2cc(OCC3CC3)c(OC)cc2-c2cc(=O)c(C(=O)O)cn21` (stereo not drawn) [Example 9, 9-(Cyclopropylmethoxy)-10-methoxy-6-(2-methoxy-1,1-dimethyl-ethyl)-2-oxo-6,7-dihydrobenzo[a]quinolizine-3-carboxylic acid] reads 4 nM.
For `COCCCOc1cc2c(cc1Cl)-c1cc(=O)c(C(=O)O)cn1C(C1CCOCC1)C2` (stereo not drawn) [Example 19, 10-Chloro-9-(3-methoxypropoxy)-2-oxo-6-tetrahydropyran-4-yl-6,7-dihydrobenzo[a]quinolizine-3-carboxylic acid], the IC50 worked out at 88 nM.
The same measure, in the same setting: the result for `COCCCOc1cc2c(cc1OC)-c1cc(=O)c(C(=O)O)cn1C(C(C)(C)COC)C2` (racemic) [Example 27, 10-Methoxy-6-(2-methoxy-1,1-dimethyl-ethyl)-9-(3-methoxypropoxy)-2-oxo-6,7-dihydrobenzo[a]quinolizine-3-carboxylic acid] reads 5 nM; that for `COCC(C)(C)C1Cc2cc(OCCCS(C)(=O)=O)c(OC)cc2-c2cc(=O)c(C(=O)O)cn21` (stereo not drawn) [Example 15, 10-Methoxy-6-(2-methoxy-1,1-dimethyl-ethyl)-9-(3-methylsulfonylpropoxy)-2-oxo-6,7-dihydrobenzo[a]quinolizine-3-carboxylic acid], 124 nM; that for `COCC(C)(C)C1Cc2cc(OCCCN3CCCC3)c(OC)cc2-c2cc(=O)c(C(=O)O)cn21` (stereo not drawn) [Example 11, 10-Methoxy-6-(2-methoxy-1,1-dimethyl-ethyl)-2-oxo-9-(3-pyrrolidin-1-ylpropoxy)-6,7-dihydrobenzo[a]quinolizine-3-carboxylic acid], 519 nM.
`COCC(C)(C)C1Cc2cc(OCCCSC)c(OC)cc2-c2cc(=O)c(C(=O)O)cn21` (stereo not drawn) [Example 10, 10-Methoxy-6-(2-methoxy-1,1-dimethyl-ethyl)-9-(3-methylsulfanylpropoxy)-2-oxo-6,7-dihydrobenzo[a]quinolizine-3-carboxylic acid]: the IC50 stood at 6 nM.
The same measure, in the same setting: next, `CCOc1cc2c(cc1OCC)-c1cc(=O)c(C(=O)O)cn1C(CNS(C)(=O)=O)C2` (stereo not drawn) [Example 38, 9,10-Diethoxy-6-(methanesulfonamidomethyl)-2-oxo-6,7-dihydrobenzo[a]quinolizine-3-carboxylic acid]: 33300 nM; `COCCOc1cc2c(cc1Cl)-c1cc(=O)c(C(=O)O)cn1C(CSC)C2` (stereo not drawn) [Example 33, 10-Chloro-9-(2-methoxyethoxy)-6-(methylsulfanylmethyl)-2-oxo-6,7-dihydrobenzo[a]quinolizine-3-carboxylic acid]: 117 nM; `COCCCOc1cc2c(cc1OC)-c1cc(=O)c(C(=O)O)cn1C(C(C)(C)CO)C2` (racemic) [Example 24, 6-(2-Hydroxy-1,1-dimethyl-ethyl)-10-methoxy-9-(3-methoxypropoxy)-2-oxo-6,7-dihydrobenzo[a]quinolizine-3-carboxylic acid]: 5 nM.
Same read-out and setting: next, `COCC(C)(C)C1Cc2cc(OCC(C)(C)CO)c(OC)cc2-c2cc(=O)c(C(=O)O)cn21` (stereo not drawn) [Example 7, 9-(3-Hydroxy-2,2-dimethyl-propoxy)-10-methoxy-6-(2-methoxy-1,1-dimethyl-ethyl)-2-oxo-6,7-dihydrobenzo[a]quinolizine-3-carboxylic acid]: 9 nM; `COCC(C)(C)C1Cc2cc(OC)c(OC)cc2-c2cc(=O)c(C(=O)O)cn21` (stereo not drawn) [Example 2, 9,10-Dimethoxy-6-(2-methoxy-1,1-dimethyl-ethyl)-2-oxo-6,7-dihydrobenzo[a]quinolizine-3-carboxylic acid]: 34 nM; `COCC(C)(C)C1Cc2cc(OCCCCCCN)c(OC)cc2-c2cc(=O)c(C(=O)O)cn21` (stereo not drawn) [Example 16, 9-(6-Aminohexoxy)-10-methoxy-6-(2-methoxy-1,1-dimethyl-ethyl)-2-oxo-6,7-dihydrobenzo[a]quinolizine-3-carboxylic acid]: 68 nM.
For `COCC(C)(C)C1Cc2cc(OCC(F)(F)F)c(OC)cc2-c2cc(=O)c(C(=O)O)cn21` (stereo not drawn) [Example 3, 10-Methoxy-6-(2-methoxy-1,1-dimethyl-ethyl)-2-oxo-9-(2,2,2-trifluoroethoxy)-6,7-dihydrobenzo[a]quinolizine-3-carboxylic acid], the IC50 was 9 nM.
With `CCOc1cc2c(cc1OCC)-c1cc(=O)c(C(=O)O)cn1C(CN1CCCC1=O)C2` (stereo not drawn) [Example 40, 9,10-Diethoxy-2-oxo-6-[(2-oxopyrrolidin-1-yl)methyl]-6,7-dihydrobenzo[a]quinolizine-3-carboxylic acid], the IC50 came to 7450 nM.

The test is the same for the next values; noted with them: read-out: IC50 (HBsAg secretion reduced by 50% compared to the no drug control); HepG2.2.15 cells, culture supernatant, HBsAg CLIA.
For `COCCCOc1cc2c(cc1Cl)-c1cc(=O)c(C(=O)O)cn1C(C(C)(C)COC)C2` (single isomer, unassigned) [Example 32, (−)-10-chloro-6-(2-methoxy-1,1-dimethyl-ethyl)-9-(3-methoxypropoxy)-2-oxo-6,7-dihydrobenzo[a]quinolizine-3-carboxylic acid], the IC50 worked out at 8270 nM.
Still for that read-out and setting: the result for `COCCCOc1cc2c(cc1OC)-c1cc(=O)c(C(=O)O)cn1C(C(C)(C)O)C2` (single isomer, unassigned) [Example 22, (−)-6-(1-hydroxy-1-methyl-ethyl)-10-methoxy-9-(3-methoxypropoxy)-2-oxo-6,7-dihydrobenzo[a]quinolizine-3-carboxylic acid] reads 4020 nM; that for `COCCCOc1cc2c(cc1OC)-c1cc(=O)c(C(=O)O)cn1[C@H](C(C)(C)CO)C2` (single isomer, unassigned) [Example 25, (+)-6-(2-Hydroxy-1,1-dimethyl-ethyl)-10-methoxy-9-(3-methoxypropoxy)-2-oxo-6,7-dihydrobenzo[a]quinolizine-3-carboxylic acid], 2 nM; that for `COCCCOc1cc2c(cc1OC)-c1cc(=O)c(C(=O)O)cn1C(C(C)(C)COC)C2` (single isomer, unassigned) [Example 28, (+)-10-Methoxy-6-(2-methoxy-1,1-dimethyl-ethyl)-9-(3-methoxypropoxy)-2-oxo-6,7-dihydrobenzo[a]quinolizine-3-carboxylic acid], 3 nM.

The next test concerns HBV DNA. Description: HBV DNA assay (real-time qPCR/TaqMan of extracellular HBV DNA, HepG2.2.15 cells). The test is classed as cell-based. The note with it: Hepatitis B virus, 144 h, supernatant six days after initial administration, qPCR, read-out: IC50 (Anti HBV DNA production activity). Here is the method:
as §1
The assay employs real-time qPCR (TaqMan) to directly measure extracellular HBV DNA copy number. HepG2.2.15 cells were plated in 96-well microtiter plates. Only the interior wells were utilized to reduce “edge effects” observed during cell culture, the exterior wells were filled with complete medium to help minimize sample evaporation. On the following day, the HepG2.2.15 cells were washed and the medium was replaced with complete medium containing various concentrations of a test compound in triplicate. 3TC was used as the positive control, while media alone was added to cells as a negative control (virus control, VC). Three days later, the culture medium was replaced with fresh medium containing the appropriately diluted drug. […] Antiviral activity was calculated from the reduction in HBV DNA levels (IC50).
Take `COCCCOc1cc2c(cc1OC)-c1cc(=O)c(C(=O)O)cn1[C@H](C(C)(C)CO)C2` (single isomer, unassigned) [Example 25, (+)-6-(2-Hydroxy-1,1-dimethyl-ethyl)-10-methoxy-9-(3-methoxypropoxy)-2-oxo-6,7-dihydrobenzo[a]quinolizine-3-carboxylic acid]: the IC50 is less than 32 nM.
The same measure, in the same setting: the result for `COCCCOc1cc2c(cc1OC)-c1cc(=O)c(C(=O)O)cn1C(C(C)(C)COC)C2` (single isomer, unassigned) [Example 28, (+)-10-Methoxy-6-(2-methoxy-1,1-dimethyl-ethyl)-9-(3-methoxypropoxy)-2-oxo-6,7-dihydrobenzo[a]quinolizine-3-carboxylic acid] reads 0.5 nM.
